Measured values reported in US5294611A, “Angiotensin II receptor blocking 2,3,6 substituted quinazolinones” (American Cyanamid Company, priority 1993, dated 1994).
Like-named read-outs stand apart in the source and are kept apart here.

Test system: Angiotensin II (AII) vasopressor response
Assay: AII Challenge: antagonism of angiotensin II vasopressor response in conscious spontaneously hypertensive rats
Assay type: in vivo, rat (male okamoto-Aoki SHR)
Conditions: for inhibition in vivo at 3 mg/kg / inhibition in vivo at 5 mg/kg: Rattus norvegicus, read-out: Inhibition; for inhibition in vivo at 3 mg/kg: iv; for inhibition in vivo at 3 mg/kg / inhibition in vivo at 5 mg/kg / Average Change: SHR n=2; for inhibition in vivo at 5 mg/kg: po; for Change: single SHR
Excerpt: Conscious Male okamoto-Aoki SHR, 16-20 weeks old, weighing approximately 330 g are purchased from Charles River Labs (Wilmington, Mass.). Conscious rats are restrained in a supine position with elastic tape. The area at the base of the tail is locally anesthetized by subcutaneous infiltration with 2% procaine. […] The cannula is secured, heparinized (1,000 I.U./ml), sealed and the wound is closed. The animals are placed in plastic restraining cages in an upright position. The cannula is attached to a Statham P23Db pressure transducer, and pulsatile blood pressure is recorded to 10-15 minutes with a Gould Brush recorder. […] Angiotensin II (human sequence, Sigma Chem. Co., St. Louis, Mo.) of 0.05 and 0.1 ug/kg i.v. is injected into all rats (predosing response). Then a test compound, vehicle or a known angiotensin II antagonist is administered i.v., i.p. or orally to each set of rats. […] The vasopressor response of angiotensin II is measured for the increase in systolic blood pressure in mmHg.

[1] = 3 mg/kg I.V., AII 0.05 mcg/kg IV, 240 min post dose
[2] = 3 mg/kg I.V., AII 0.1 mcg/kg IV, 300 min post dose
[3] = 5 mg/kg P.O., AII 0.1 mcg/kg IV, 300 min post dose

CCCCc1nc2ccc([C@H]3[C@@H]4C(=O)OC[C@@H]4ON3C)cc2c(=O)n1Cc1ccc(-c2ccccc2-c2nnn[nH]2)cc1 (relative stereo) [Example 53]
inhibition in vivo at 3 mg/kg (0.5 h, 3 mg/kg I.V., AII 0.05 mcg/kg IV, 30 min post dose): 74%
inhibition in vivo at 3 mg/kg (0.5 h, 3 mg/kg I.V., AII 0.1 mcg/kg IV, 30 min post dose): 81%
inhibition in vivo at 3 mg/kg (1 h, 3 mg/kg I.V., AII 0.05 mcg/kg IV, 60 min post dose): 99%
inhibition in vivo at 3 mg/kg (1 h, 3 mg/kg I.V., AII 0.1 mcg/kg IV, 60 min post dose): 95%
inhibition in vivo at 3 mg/kg (2 h, 3 mg/kg I.V., AII 0.05 mcg/kg IV, 120 min post dose): 42%
inhibition in vivo at 3 mg/kg (2 h, 3 mg/kg I.V., AII 0.1 mcg/kg IV, 120 min post dose): 64%
inhibition in vivo at 3 mg/kg (3 h, 3 mg/kg I.V., AII 0.05 mcg/kg IV, 180 min post dose): 77%
inhibition in vivo at 3 mg/kg (3 h, 3 mg/kg I.V., AII 0.1 mcg/kg IV, 180 min post dose): 64%
inhibition in vivo at 3 mg/kg (4 h, 3 mg/kg I.V., AII 0.05 mcg/kg IV, 240 min post dose): 36%
inhibition in vivo at 3 mg/kg (4 h, 3 mg/kg I.V., AII 0.1 mcg/kg IV, 240 min post dose): 44%
inhibition in vivo at 3 mg/kg (5 h, 3 mg/kg I.V., AII 0.05 mcg/kg IV, 300 min post dose): 49%
inhibition in vivo at 3 mg/kg (5 h, 3 mg/kg I.V., AII 0.1 mcg/kg IV, 300 min post dose): 39%
inhibition in vivo at 3 mg/kg ([…], 3 mg/kg I.V., AII 0.05 mcg/kg IV, 90 min post dose): 68%
inhibition in vivo at 3 mg/kg ([…], 3 mg/kg I.V., AII 0.1 mcg/kg IV, 90 min post dose): 66%
inhibition in vivo at 5 mg/kg (0.5 h, 5 mg/kg P.O., AII 0.05 mcg/kg IV, 30 min post dose): 75%
inhibition in vivo at 5 mg/kg (0.5 h, 5 mg/kg P.O., AII 0.1 mcg/kg IV, 30 min post dose): 59%
inhibition in vivo at 5 mg/kg (1 h, 5 mg/kg P.O., AII 0.05 mcg/kg IV, 60 min post dose): 81%
inhibition in vivo at 5 mg/kg (1 h, 5 mg/kg P.O., AII 0.1 mcg/kg IV, 60 min post dose): 53%
inhibition in vivo at 5 mg/kg (2 h, 5 mg/kg P.O., AII 0.05 mcg/kg IV, 120 min post dose): 98%
inhibition in vivo at 5 mg/kg (2 h, 5 mg/kg P.O., AII 0.1 mcg/kg IV, 120 min post dose): 74%
inhibition in vivo at 5 mg/kg (3 h, 5 mg/kg P.O., AII 0.05 mcg/kg IV, 180 min post dose): 96%
inhibition in vivo at 5 mg/kg (3 h, 5 mg/kg P.O., AII 0.1 mcg/kg IV, 180 min post dose): 79%
inhibition in vivo at 5 mg/kg (4 h, 5 mg/kg P.O., AII 0.05 mcg/kg IV, 240 min post dose): 69%
inhibition in vivo at 5 mg/kg (4 h, 5 mg/kg P.O., AII 0.1 mcg/kg IV, 240 min post dose): 71%
inhibition in vivo at 5 mg/kg (5 h, 5 mg/kg P.O., AII 0.05 mcg/kg IV, 300 min post dose): 84%
inhibition in vivo at 5 mg/kg (5 h, 5 mg/kg P.O., AII 0.1 mcg/kg IV, 300 min post dose): 53%
inhibition in vivo at 5 mg/kg ([…], 5 mg/kg P.O., AII 0.05 mcg/kg IV, 90 min post dose): 88%
inhibition in vivo at 5 mg/kg ([…], 5 mg/kg P.O., AII 0.1 mcg/kg IV, 90 min post dose): 76%
Average Change (3 mg/kg I.V., AII 0.05 mcg/kg IV, 30 min post dose): 10 mmHg
Average Change (3 mg/kg I.V., AII 0.05 mcg/kg IV, 60 min post dose): 0.5 mmHg
Average Change (3 mg/kg I.V., AII 0.05 mcg/kg IV, 90 min post dose): 12.5 mmHg
Average Change (3 mg/kg I.V., AII 0.05 mcg/kg IV, 120 min post dose): 22.5 mmHg
Average Change (3 mg/kg I.V., AII 0.05 mcg/kg IV, 180 min post dose): 9 mmHg
Average Change [1]: 25 mmHg
Average Change (3 mg/kg I.V., AII 0.1 mcg/kg IV, 30 min post dose): 9.5 mmHg
Average Change (3 mg/kg I.V., AII 0.1 mcg/kg IV, 60 min post dose): 2.5 mmHg
Average Change (3 mg/kg I.V., AII 0.1 mcg/kg IV, 90 min post dose): 16.5 mmHg
Average Change (3 mg/kg I.V., AII 0.1 mcg/kg IV, 120 min post dose): 17.5 mmHg
Average Change (3 mg/kg I.V., AII 0.1 mcg/kg IV, 180 min post dose): 17.5 mmHg
Average Change (3 mg/kg I.V., AII 0.1 mcg/kg IV, 240 min post dose): 27.5 mmHg
Average Change [2]: 30 mmHg
Average Change (5 mg/kg P.O., AII 0.05 mcg/kg IV, 30 min post dose): 10 mmHg
Average Change (5 mg/kg P.O., AII 0.05 mcg/kg IV, 60 min post dose): 7.5 mmHg
Average Change (5 mg/kg P.O., AII 0.05 mcg/kg IV, 90 min post dose): 5 mmHg
Average Change (5 mg/kg P.O., AII 0.05 mcg/kg IV, 120 min post dose): 1 mmHg
Average Change (5 mg/kg P.O., AII 0.05 mcg/kg IV, 180 min post dose): 1.5 mmHg
Average Change (5 mg/kg P.O., AII 0.05 mcg/kg IV, 240 min post dose): 12.5 mmHg
Average Change (5 mg/kg P.O., AII 0.05 mcg/kg IV, 300 min post dose): 6.5 mmHg
Average Change (5 mg/kg P.O., AII 0.1 mcg/kg IV, 30 min post dose): 17.5 mmHg
Average Change (5 mg/kg P.O., AII 0.1 mcg/kg IV, 60 min post dose): 20 mmHg
Average Change (5 mg/kg P.O., AII 0.1 mcg/kg IV, 90 min post dose): 10 mmHg
Average Change (5 mg/kg P.O., AII 0.1 mcg/kg IV, 120 min post dose): 11 mmHg
Average Change (5 mg/kg P.O., AII 0.1 mcg/kg IV, 180 min post dose): 9 mmHg
Average Change (5 mg/kg P.O., AII 0.1 mcg/kg IV, 240 min post dose): 12.5 mmHg
Average Change [3]: 20 mmHg
Change [1]: 25 mmHg
Change (3 mg/kg I.V., AII 0.05 mcg/kg IV, 300 min post dose): 20 mmHg
Change [2]: 30 mmHg
Change [3]: 20 mmHg
